33 compounds from patent US8895568B2, “Compositions comprising substituted pteridines as agrochemicals” (Dow AgroSciences LLC, priority 2009, dated 2014) can be followed below.

Like-named read-outs stand apart in the source and are kept apart here.

Holding throughout (type): in vivo
For one assay, the system named is Colletotricum lagenarium. Kind of assay: Cucumber Anthracnose (COLLLA), foliar spray, percent disease control.
A further assay deals with Cochliobolus sativus. Kind of assay: Spot Blotch of Wheat (COCHSA), foliar spray, percent disease control.
In assay [1] the test system is DROSME, AEDSAE, LAPHEG, or HELIVI. Kind of assay: Insecticidal activity, active if any of DROSME, AEDSAE, LAPHEG or HELIVI was controlled at 80% or more. The settings on record: read-out: >80% mortality on any insect species @ 4000 ppm.
Assay [2] has as its system Pseudoperonospora cubensis. Kind of assay: Cucumber Downy Mildew (PSPECU), foliar spray, percent disease control. The note with it: read-out: PSPECU percent control.
Where [3] appears, read: Bipolaris sorokiniana, foliar; read-out: COCHSA percent control.
The mark [4] stands for this setting: Bipolaris sorokiniana; foliar spray; read-out: COCHSA percent control.

With `FC(F)(F)c1ccncc1Oc1ccc(CCNc2ncnc3nccnc23)cc1` [Compound 111], the pest or weed control at 200 µg/mL in the assay with Colletotricum lagenarium (foliar) lay in the range of 50 to 79%; with Cochliobolus sativus (setting [3]), 0 to 49%; in assay [2] (foliar) it was 80 to 100%. In addition, the pest or weed control at 4000 ppm in assay [1] is above 80%.

Consider `Fc1cnc(Oc2ccc(CCNc3ncnc4nccnc34)cc2)c(F)c1C(F)(F)F` [Compound 106], for which the pest or weed control at 200 µg/mL lay in the range of 0 to 49% in the assay with Colletotricum lagenarium (foliar), 0 to 49% in the assay on Cochliobolus sativus (setting [3]) and 80 to 100% in assay [2] (foliar). In assay [1], the pest or weed control at 4000 ppm is above 80%.

As for `COc1cc(CCNc2ncnc3nccnc23)ccc1Oc1ncc(C(F)(F)F)cc1F` [Compound 130], the pest or weed control at 200 µg/mL in the assay on Colletotricum lagenarium (foliar) is 0 to 49%; in the assay with Cochliobolus sativus (setting [3]), 0 to 49%; in assay [2] (foliar), 80 to 100%. For the same compound, the pest or weed control at 4000 ppm in assay [1] is above 80%.

As to `COC(=O)c1cnc(Oc2ccc(CCNc3ncnc4nccnc34)cc2)cc1C(F)(F)F` [Compound 202], the figures for the pest or weed control at 200 µg/mL (in the assay on Colletotricum lagenarium (foliar spray); in the assay with Cochliobolus sativus (setting [4]); in assay [2] (foliar spray)) were 0 to 49%, 0 to 49% and 80 to 100%, respectively. For the same compound, the pest or weed control at 4000 ppm in assay [1] was above 80%.

Take `Fc1cnc(Oc2ccc(CCNc3ncnc4nccnc34)cc2)c(F)c1` [Compound 107]: the figures for the pest or weed control at 200 µg/mL (with Colletotricum lagenarium (foliar); in the assay with Cochliobolus sativus (setting [3]); in assay [2] (foliar)) were 0 to 49%, 0 to 49% and 80 to 100%, respectively. In assay [1], the pest or weed control at 4000 ppm was above 80%.

Turning to `CC(F)(F)c1ccnc(Oc2ccc(CCNc3ncnc4nccnc34)cc2)c1` [Compound 44], the pest or weed control at 200 µg/mL in the assay with Colletotricum lagenarium (foliar) is 50 to 79%; with Cochliobolus sativus (setting [3]), 0 to 49%; in assay [2] (foliar) it was 80 to 100%. In addition, the pest or weed control at 4000 ppm in assay [1] was above 80%.

Regarding `COc1cc(CCNc2ncnc3nccnc23)ccc1Oc1ccc(C(F)(F)F)cn1` [Compound 49], the pest or weed control at 200 µg/mL in the assay with Colletotricum lagenarium (foliar) was 50 to 79%; with Cochliobolus sativus (setting [3]) it was 50 to 79%; in assay [2] (foliar), 80 to 100%. Moreover, the pest or weed control at 4000 ppm in assay [1] was above 80%.

Take `FC(F)(F)COc1cccc(Oc2ccc(CCNc3ncnc4nccnc34)cc2)n1` [Compound 11, Pteridin-4-yl-(2-{4-[6-(2,2,2-trifluoroethoxy)-pyridin-2-yloxy]-phenyl}-ethyl)-amine]: the pest or weed control at 200 µg/mL in the assay on Colletotricum lagenarium (foliar) was 0 to 49%; with Cochliobolus sativus (setting [3]), 0 to 49%; in assay [2] (foliar) it was 50 to 79%. In addition, the pest or weed control at 4000 ppm in assay [1] is above 80%.

Take `Cc1cc(CCNc2ncnc3nccnc23)ccc1Oc1cc(C#N)ccn1` [Compound 155]: the pest or weed control at 200 µg/mL in the assay on Colletotricum lagenarium (foliar) was 50 to 79%; in the assay on Cochliobolus sativus (setting [3]), 0 to 49%; in assay [2] (foliar) it was 80 to 100%. Moreover, the pest or weed control at 4000 ppm in assay [1] is above 80%.

In the case of `CC(=O)Oc1cc(CCNc2ncnc3nccnc23)ccc1Oc1cc(C(F)(F)F)ccn1` [Compound 190, Acetic acid 5-[2-(pteridin-4-ylamino)-ethyl]-2-(4-trifluoromethylpyridin-2-yloxy)-phenyl ester], the pest or weed control at 200 µg/mL (in the assay with Colletotricum lagenarium (foliar); in the assay with Cochliobolus sativus (setting [3]); in assay [2] (foliar)) was 0 to 49% each time. Also, the pest or weed control at 4000 ppm in assay [1] is above 80%.

In the case of `CC(C)(C)OC(=O)c1ccnc(Oc2ccc(CCNc3ncnc4nccnc34)cc2)c1` [Compound 192], the pest or weed control at 200 µg/mL with Colletotricum lagenarium (foliar) was 80 to 100%; in the assay with Cochliobolus sativus (setting [3]) it was 0 to 49%; in assay [2] (foliar), 80 to 100%. Besides, the pest or weed control at 4000 ppm in assay [1] is above 80%.

For the compound `FC(F)(F)COc1ccnc(Oc2ccc(CCNc3ncnc4nccnc34)cc2)n1` [Compound 25], the pest or weed control at 200 µg/mL in the assay with Colletotricum lagenarium (foliar) lay in the range of 0 to 49%; in the assay on Cochliobolus sativus (setting [3]), 0 to 49%; in assay [2] (foliar) it was 80 to 100%. In addition, in assay [1], the pest or weed control at 4000 ppm is above 80%.

In the case of `CC(Nc1ncnc2nccnc12)c1ccc(Oc2ccc(C(F)(F)F)cn2)cc1` (stereo not drawn) [Compound 67], the pest or weed control at 200 µg/mL is 0 to 49% in the assay on Colletotricum lagenarium (foliar), 0 to 49% in the assay with Cochliobolus sativus (setting [3]) and 80 to 100% in assay [2] (foliar). Besides, the pest or weed control at 4000 ppm in assay [1] is above 80%.

Take `Cc1nc2ncnc(NCCc3ccc(Oc4ncc(C(F)(F)F)cc4F)cc3)c2nc1C` [Compound 163]: the pest or weed control at 200 µg/mL was in the range of 80 to 100% with Colletotricum lagenarium (foliar), 0 to 49% in the assay with Cochliobolus sativus (setting [3]) and 80 to 100% in assay [2] (foliar). Further, the pest or weed control at 4000 ppm in assay [1] is above 80%.

Consider `CCOc1cc(CCNc2ncnc3nccnc23)ccc1Oc1cc(C(F)(F)F)ccn1` [Compound 153], for which the pest or weed control at 200 µg/mL in the assay with Colletotricum lagenarium (foliar) is 0 to 49%; in the assay with Cochliobolus sativus (setting [3]) it was 0 to 49%; in assay [2] (foliar) it was 80 to 100%. The pest or weed control at 4000 ppm in assay [1] was above 80%.

On to `Cc1c(CCNc2ncnc3nccnc23)ccc(Oc2ncc(C(F)(F)F)cc2F)c1C` [Compound 148], for which the pest or weed control at 200 µg/mL lay within 0 to 49% in the assay with Colletotricum lagenarium (foliar), 0 to 49% in the assay with Cochliobolus sativus (setting [3]) and 80 to 100% in assay [2] (foliar). Moreover, the pest or weed control at 4000 ppm in assay [1] is above 80%.

For `Cc1cc(CCNc2ncnc3nccnc23)ccc1Oc1cncc(Cl)c1C#N` [Compound 142], the figures for the pest or weed control at 200 µg/mL (in the assay with Colletotricum lagenarium (foliar); in the assay with Cochliobolus sativus (setting [3]); in assay [2] (foliar)) were 0 to 49%, 0 to 49% and 80 to 100%, respectively. In addition, the pest or weed control at 4000 ppm in assay [1] was above 80%.

Consider `CCCOc1cc(CCNc2ncnc3nccnc23)ccc1Oc1cc(C(C)(F)F)ccn1` [Compound 199], for which the figures for the pest or weed control at 200 µg/mL (in the assay with Colletotricum lagenarium (foliar); in the assay with Cochliobolus sativus (setting [3]); in assay [2] (foliar)) were 0 to 49%, 0 to 49% and 80 to 100%, respectively. Further, the pest or weed control at 4000 ppm in assay [1] is above 80%.

As for `FC(F)(F)c1ccc(Oc2ccc(CCNc3ncnc4nccnc34)cc2)nc1` [Compound 5], the pest or weed control at 200 µg/mL in the assay with Colletotricum lagenarium (foliar) fell in the range of 80 to 100%; in the assay on Cochliobolus sativus (setting [3]) it was 0 to 49%; in assay [2] (foliar), 80 to 100%. Further, the pest or weed control at 4000 ppm in assay [1] was above 80%.

`Fc1cccc(Oc2ccc(CCNc3ncnc4nccnc34)cc2)c1C(F)(F)F` [Compound 216]: the pest or weed control at 200 µg/mL in the assay on Colletotricum lagenarium (foliar spray) was 0 to 49%; in the assay with Cochliobolus sativus (setting [4]), 0 to 49%; in assay [2] (foliar spray), 80 to 100%. Moreover, the pest or weed control at 4000 ppm in assay [1] was above 80%.

Regarding `COc1cc(C(F)(F)F)cc(Oc2ccc(CCNc3ncnc4nc(C)c(C)nc34)cc2)n1` [Compound 198], the pest or weed control at 200 µg/mL (in the assay on Colletotricum lagenarium (foliar); in the assay on Cochliobolus sativus (setting [3]); in assay [2] (foliar)) was 0 to 49% throughout. In assay [1], the pest or weed control at 4000 ppm is above 80%.

Regarding `CC(Nc1ncnc2nccnc12)c1ccc(Oc2cc(C(F)(F)F)ccn2)cc1` (stereo not drawn) [Compound 82], the pest or weed control at 200 µg/mL in the assay on Colletotricum lagenarium (foliar) was in the range of 0 to 49%; in the assay on Cochliobolus sativus (setting [3]) it was 0 to 49%; in assay [2] (foliar), 80 to 100%. In assay [1], the pest or weed control at 4000 ppm was above 80%.

For the compound `Cc1cc(Oc2cc(C(F)(F)F)ccn2)c(C)cc1CCNc1ncnc2nccnc12` [Compound 152], the pest or weed control at 200 µg/mL in the assay with Colletotricum lagenarium (foliar) was in the range of 0 to 49%; in the assay with Cochliobolus sativus (setting [3]), 0 to 49%; in assay [2] (foliar), 80 to 100%. Besides, in assay [1], the pest or weed control at 4000 ppm is above 80%.

`c1ccc(-c2ccc(CCNc3ncnc4nccnc34)cc2)cc1` [Compound 125]: the pest or weed control at 200 µg/mL in the assay on Colletotricum lagenarium (foliar) lay in the range of 50 to 79%; with Cochliobolus sativus (Bipolaris sorokiniana, foliar, read-out: COCHSA percent control), 0 to 49%; in assay [2] (foliar), 80 to 100%. The pest or weed control at 4000 ppm in assay [1] was above 80%.

For `CC(Sc1ncnc2nccnc12)c1ccc(C#N)cc1` (stereo not drawn) [Compound 78], the pest or weed control at 200 µg/mL (with Colletotricum lagenarium (foliar); in the assay on Cochliobolus sativus (setting [3]); in assay [2] (foliar)) was 0 to 49% each time.

Take `CC(F)(F)c1ccnc(Oc2ccc(CCNc3ncnc4nccnc34)cc2O)c1` [Compound 197, 2-[4-(1,1-Difluoroethyl)-pyridin-2-yloxy]-5-[2-(pteridin-4-ylamino)-ethyl]-phenol]: the figures for the pest or weed control at 200 µg/mL (in the assay on Colletotricum lagenarium (foliar); with Cochliobolus sativus (setting [3]); in assay [2] (foliar)) were 0 to 49%, 0 to 49% and 80 to 100%, respectively.

For the compound `Cc1c(CCNc2ncnc3nccnc23)ccc(Oc2cncc(Cl)c2C#N)c1C` [Compound 147], the pest or weed control at 200 µg/mL with Colletotricum lagenarium (foliar) was in the range of 0 to 49%; in the assay with Cochliobolus sativus (setting [3]), 0 to 49%; in assay [2] (foliar), 80 to 100%.

For `COc1cc(C(F)(F)F)cc(Oc2ccc(OCCNc3ncnc4nccnc34)cc2)n1` [Compound 168], the pest or weed control at 200 µg/mL (in the assay with Colletotricum lagenarium (foliar); in the assay with Cochliobolus sativus (setting [3]); in assay [2] (foliar)) was 0 to 49% throughout.

With `c1ccc(OCc2nnc(Oc3ccc(CCNc4ncnc5nccnc45)cc3)s2)cc1` [Compound 27], the pest or weed control at 200 µg/mL (with Colletotricum lagenarium (foliar); in the assay on Cochliobolus sativus (setting [3]); in assay [2] (foliar)) was 0 to 49% each time.

Regarding `CC(=O)Oc1cc(CCNc2ncnc3nccnc23)ccc1Oc1cc(C(C)(F)F)ccn1` [Compound 196], the pest or weed control at 200 µg/mL with Colletotricum lagenarium (foliar) lay within 0 to 49%; in the assay on Cochliobolus sativus (setting [3]) it was 0 to 49%; in assay [2] (foliar), 80 to 100%.

Regarding `Oc1cccc(OCCNc2ncnc3nccnc23)c1` [Compound 81], the results for the pest or weed control at 200 µg/mL (in the assay on Colletotricum lagenarium (foliar); with Cochliobolus sativus (setting [3]); in assay [2] (foliar)) were 0 to 49%, 0 to 49% and 80 to 100%, respectively.

For the compound `FC(F)(F)c1ccnc(Oc2ccc(CCNc3ncnc4nccnc34)cc2)n1` [Compound 3], the figures for the pest or weed control at 200 µg/mL (in the assay on Colletotricum lagenarium (foliar); with Cochliobolus sativus (setting [3]); in assay [2] (foliar)) were 50 to 79%, 0 to 49% and 80 to 100%, respectively.

Take `COc1ccc(CCNc2nc(C)nc3nc(C)c(C)nc23)cc1` [Compound 208, [2-(4-Methoxyphenyl)-ethyl]-(2,6,7-trimethylpteridin-4-yl)-amine]: the values for the pest or weed control at 200 µg/mL (with Colletotricum lagenarium (foliar spray); in the assay on Cochliobolus sativus (setting [4]); in assay [2] (foliar spray)) were 0 to 49%, 0 to 49% and 50 to 79%, respectively.
